Source: patent US9115143B2, “Substituted indole derivatives as gamma secretase modulators” (Janssen Pharmaceuticals, Inc., priority 2011, dated 2015)

What was measured:
[1] = test system: Aβ42; assay: Screening for γ-secretase-modulating activity: Aβ42 in supernatant of SKNBE2 cells carrying hAPP 695 wild type (Alphalisa); type: cell-based, human; conditions: overnight incubation, Alphalisa on supernatant
Procedure, shortened: (§1)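 Secreted Aβ42 (C-terminal/N-terminal antibody pair) and Aβtotal (N-terminal/mid-region pair) were quantified by AlphaLISA after overnight compound exposure of wild-type hAPP 695 SKNBE2 cells at 37 °C. Values expressed relative to compound-free maximum, with IC50 from nonlinear 4-parameter regression.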

[2] = test system: Aβtotal; assay: Screening for γ-secretase-modulating activity: Aβtotal in supernatant of SKNBE2 cells carrying hAPP 695 wild type (Alphalisa); type: cell-based, human; conditions: overnight incubation, Alphalisa on supernatant
Procedure, shortened: as §1

[3] = SKNBE2 human neuroblastoma cells carrying hAPP 695 wild type
[4] = Homo sapiens, SKNBE2, SKNBE2 human neuroblastoma cells carrying hAPP 695 wild type

| IC50 [1, 3] [µM] | IC50 [2, 4] [µM] | melting point [°C] | IC50 [2, 3] [µM] | IC50 [1, 4] [µM] | SMILES |
| --- | --- | --- | --- | --- | --- |
| 0.219 | > 10 | 255 |  |  | Cc1cc(F)ccc1C1OCCn2nc(-c3cc4cc(C#N)ccc4[nH]3)nc21 (single isomer, unassigned) [Compound 97, 2-[8-(4-fluoro-2-methylphenyl)-5,6-dihydro-8H-[1,2,4]triazolo[5,1-c][1,4]oxazin-2-yl]-1H-indole-5-carbonitrile] |
| 5.5 |  | 253.5 | > 10 |  | Cc1cc(F)ccc1C1OCCn2nc(-c3cc4cc(C#N)ccc4[nH]3)nc21 (single isomer, unassigned) [Compound 98, 2-[8-(4-fluoro-2-methylphenyl)-5,6-dihydro-8H-[1,2,4]triazolo[5,1-c][1,4]oxazin-2-yl]-1H-indole-5-carbonitrile] |
|  | > 10 | 225.2 |  | 0.295 | Cc1c(F)cccc1C1OCCn2nc(-c3cc4cc(C#N)ccc4[nH]3)nc21 (centres unmarked) [Compound 1, 2-[8-(3-fluoro-2-methylphenyl)-5,6-dihydro-8H-[1,2,4]triazolo[5,1-c][1,4]oxazin-2-yl]-1H-indole-5-carbonitrile] |
|  | > 10 | 139.6 |  | 0.661 | COc1ccccc1C1CCCn2nc(-c3cc4cc(C#N)ccc4[nH]3)nc21 (centres unmarked) [Compound 19, 2-[5,6,7,8-tetrahydro-8-(2-methoxyphenyl)[1,2,4]triazolo[1,5-a]pyridin-2-yl]-1H-indole-5-carbonitrile] |
|  | > 10 | 184.3 |  | 0.355 | N#Cc1ccc2[nH]c(-c3nc4n(n3)CCCC4c3cc(C(F)(F)F)ccc3F)cc2c1 (centres unmarked) [Compound 21, 2-[8-[2-fluoro-5-(trifluoromethyl)phenyl]-5,6,7,8-tetrahydro[1,2,4]triazolo[1,5-a]pyridin-2-yl]-1H-indole-5-carbonitrile] |
|  | > 10 | 265 |  | 0.138 | N#Cc1ccc2[nH]c(-c3nc4n(n3)CCCC4c3ccc(F)cc3C(F)(F)F)cc2c1 (centres unmarked) [Compound 22, 2-[8-[4-fluoro-2-(trifluoromethyl)phenyl]-5,6,7,8-tetrahydro[1,2,4]triazolo[1,5-a]pyridin-2-yl]-1H-indole-5-carbonitrile] |
| 1.15 |  |  | > 10 |  | COc1c(C#N)ccc2[nH]c(-c3nc4n(n3)CCOC4c3ccccc3Cl)cc12 (centres unmarked) [Compound 140, 2-[8-(2-chlorophenyl)-5,6-dihydro-8H-[1,2,4]triazolo[5,1-c][1,4]oxazin-2-yl]-4-methoxy-1H-indole-5-carbonitrile] |
| 0.186 | > 10 |  |  |  | COc1c(C#N)ccc2[nH]c(-c3cn4c(n3)C(c3ccc(F)c(Cl)c3)OCC4)cc12 (centres unmarked) [Compound 143, 2-[8-(3-chloro-4-fluorophenyl)-5,6-dihydro-8H-imidazo[2,1-c][1,4]oxazin-2-yl]-4-methoxy-1H-indole-5-carbonitrile] |
| 0.214 | > 10 |  |  |  | COc1c(C#N)ccc2[nH]c(-c3nc4n(n3)CCOC4c3ccc(F)c(Cl)c3)cc12 (centres unmarked) [Compound 144, 2-[8-(3-chloro-4-fluorophenyl)-5,6-dihydro-8H-[1,2,4]triazolo[5,1-c][1,4]oxazin-2-yl]-4-methoxy-1H-indole-5-carbonitrile] |
| 0.11 |  |  | > 10 |  | COCc1ccccc1C1OCCn2cc(-c3cc4c(OC)c(C#N)ccc4[nH]3)nc21 (centres unmarked) [Compound 145, 2-[5,6-dihydro-8-[2-(methoxymethyl)phenyl]-8H-imidazo[2,1-c][1,4]oxazin-2-yl]-4-methoxy-1H-indole-5-carbonitrile] |
| 6.17 |  |  | > 10 |  | COCc1ccccc1C1OCCn2cc(-c3cc4c(OC)c(C#N)ccc4[nH]3)nc21 (centres unmarked) [Compound 146, 2-[5,6-dihydro-8-[2-(methoxymethyl)phenyl]-8H-imidazo[2,1-c][1,4]oxazin-2-yl]-4-methoxy-1H-indole-5-carbonitrile] |
| 0.054 | > 10 |  |  |  | COc1c(C#N)ccc2[nH]c(-c3cn4c(n3)C(c3cc(F)ccc3C)OCC4)cc12 (centres unmarked) [Compound 151, 2-[8-(5-fluoro-2-methylphenyl)-5,6-dihydro-8H-imidazo[2,1-c][1,4]oxazin-2-yl]-4-methoxy-1H-indole-5-carbonitrile] |
| 3.8 |  |  | > 10 |  | COc1c(C#N)ccc2[nH]c(-c3cn4c(n3)C(c3c(F)cccc3C(F)(F)F)OCC4)cc12 (centres unmarked) [Compound 152, 2-[8-[2-fluoro-6-(trifluoromethyl)phenyl]-5,6-dihydro-8H-imidazo[2,1-c][1,4]oxazin-2-yl]-4-methoxy-1H-indole-5-carbonitrile] |
| 1.48 |  |  | > 10 |  | COc1c(C#N)ccc2[nH]c(-c3cn4c(n3)C(c3ccc(F)c(Cl)c3)OCC4)cc12 (centres unmarked) [Compound 155, 2-[8-(3-chloro-4-fluorophenyl)-5,6-dihydro-8H-imidazo[2,1-c][1,4]oxazin-2-yl]-4-methoxy-1H-indole-5-carbonitrile] |
| 6.92 |  |  | > 10 |  | COc1c(C#N)ccc2[nH]c(-c3nc4n(n3)CCOC4c3c(F)cccc3C(F)(F)F)cc12 (centres unmarked) [Compound 162, 2-[8-[2-fluoro-6-(trifluoromethyl)phenyl]-5,6-dihydro-8H-[1,2,4]triazolo[5,1-c][1,4]oxazin-2-yl]-4-methoxy-1H-indole-5-carbonitrile] |
| 0.052 |  |  | > 10 |  | COc1c(C#N)ccc2[nH]c(-c3nc4n(n3)CCOC4c3c(F)cccc3C(F)(F)F)cc12 (centres unmarked) [Compound 163, 2-[8-[2-fluoro-6-(trifluoromethyl)phenyl]-5,6-dihydro-8H-[1,2,4]triazolo[5,1-c][1,4]oxazin-2-yl]-4-methoxy-1H-indole-5-carbonitrile] |
| 4.37 |  |  | > 10 |  | COc1c(C#N)ccc2[nH]c(-c3cn4c(n3)C(c3cc(C(F)(F)F)ccc3F)OCC4)cc12 (centres unmarked) [Compound 165, 2-[8-[2-fluoro-5-(trifluoromethyl)phenyl]-5,6-dihydro-8H-imidazo[2,1-c][1,4]oxazin-2-yl]-4-methoxy-1H-indole-5-carbonitrile] |
|  | > 10 |  |  | 0.347 | Cc1cc(F)ccc1C1OCCn2nc(-c3cc4c(OC(C)C)c(C#N)ccc4[nH]3)nc21 (centres unmarked) [Compound 166, 2-[8-(4-fluoro-2-methylphenyl)-5,6-dihydro-8H-[1,2,4]triazolo[5,1-c][1,4]oxazin-2-yl]-4-(1-methylethoxy)-1H-indole-5-carbonitrile] |
|  | > 10 |  |  | 0.257 | COCCOc1c(C#N)ccc2[nH]c(-c3cn4c(n3)C(c3ccc(F)cc3C)OCC4)cc12 (centres unmarked) [Compound 167, 2-[8-(4-fluoro-2-methylphenyl)-5,6-dihydro-8H-imidazo[2,1-c][1,4]oxazin-2-yl]-4-(2-methoxyethoxy)-1H-indole-5-carbonitrile] |
|  | > 10 |  |  | 0.245 | Cc1cc(F)ccc1C1OCCn2nc(-c3cc4c(OCC(F)F)c(C#N)ccc4[nH]3)nc21 (centres unmarked) [Compound 168, 4-(2,2-difluoroethoxy)-2-[8-(4-fluoro-2-methylphenyl)-5,6-dihydro-8H-[1,2,4]triazolo[5,1-c][1,4]oxazin-2-yl]-1H-indole-5-carbonitrile] |
|  | > 10 |  |  | 0.151 | CCOc1c(C#N)ccc2[nH]c(-c3nc4n(n3)CCOC4c3ccc(F)cc3C)cc12 (centres unmarked) [Compound 171, 4-ethoxy-2-[8-(4-fluoro-2-methylphenyl)-5,6-dihydro-8H-[1,2,4]triazolo[5,1-c][1,4]oxazin-2-yl]-1H-indole-5-carbonitrile] |
|  | > 10 |  |  | 2.51 | Cc1cc(F)ccc1C1CCCn2nc(-c3nc4cc(-n5cncc5C)ccc4[nH]3)nc21 (centres unmarked) [Compound 177, 8-(4-fluoro-2-methylphenyl)-5,6,7,8-tetrahydro-2-[5-(5-methyl-1H-imidazol-1-yl)-1H-benzimidazol-2-yl]-[1,2,4]triazolo[1,5-a]pyridine] |
| 0.407 | > 10 |  |  |  | Cc1cn(-c2ccc3[nH]c(-c4nc5n(n4)CCCC5c4ccc(F)cc4C)nc3c2)cn1 (centres unmarked) [Compound 179, 8-(4-fluoro-2-methylphenyl)-5,6,7,8-tetrahydro-2-[5-(4-methyl-1H-imidazol-1-yl)-1H-benzimidazol-2-yl]-[1,2,4]triazolo[1,5-a]pyridine] |
|  | > 10 |  |  | 2.88 | COc1c(C#N)ccc2[nH]c(-c3cn4c(n3)COCC4(C)c3cc(C(F)(F)F)ccc3F)cc12 (centres unmarked) [Compound 183, 2-[5-[2-fluoro-5-(trifluoromethyl)phenyl]-5,6-dihydro-5-methyl-8H-imidazo[2,1-c][1,4]oxazin-2-yl]-4-methoxy-1H-indole-5-carbonitrile] |
|  | 5.37 |  |  | 3.09 | COc1c(C#N)ccc2[nH]c(-c3cn4c(n3)COCC4c3ccccc3)cc12 (centres unmarked) [Compound 184, 2-(5,6-dihydro-5-phenyl-8H-imidazo[2,1-c][1,4]oxazin-2-yl)-4-methoxy-1H-indole-5-carbonitrile] |

| SMILES | IC50 [1, 3] [µM] | IC50 [2, 4] [µM] | melting point [°C] | IC50 [2, 3] [µM] | IC50 [1, 4] [µM] |
| --- | --- | --- | --- | --- | --- |
| Cc1cn(-c2ccc3[nH]c(-c4nc5n(n4)CCOC5c4ccc(F)cc4C)cc3c2)cn1 (single isomer, unassigned) [Compound 109, 8-(4-fluoro-2-methylphenyl)-5,6-dihydro-2-[5-(4-methyl-1H-imidazol-1-yl)-1H-indol-2-yl]-8H-[1,2,4]triazolo[5,1-c][1,4]oxazine] | 0.537 | > 10 | 278.9 |  |  |
| Cc1cn(-c2ccc3[nH]c(-c4nc5n(n4)CCOC5c4ccc(F)cc4C)cc3c2)cn1 (single isomer, unassigned) [Compound 110, 8-(4-fluoro-2-methylphenyl)-5,6-dihydro-2-[5-(4-methyl-1H-imidazol-1-yl)-1H-indol-2-yl]-8H-[1,2,4]triazolo[5,1-c][1,4]oxazine] | 0.036 |  | 278 | > 10 |  |
